Legend:
récepteurs AMPA/Kainate = assay: Hippocampal EPSP induced by AMPA/Kainate receptor activation (rat hippocampal slices, Schäffer collaterals stimulation); type: cell-based; conditions: for IC50: rat hippocampal slices, CA1, in presence of Mg++ (blocks NMDA receptors), read-out: IC50 (inhibition des EPSP hippocampiques induits par l'activation des récepteurs AMPA/Kainate); for EPSP hippocampique IC50 AMPA-Kainate/IC50 NMDA-Glycine: ratio of IC50 on AMPA-Kainate EPSP to IC50 on NMDA-Glycine EPSP
Protocol: Des coupes transversales (500 µm) d'hippocampe de Rat sont placées dans un milieu de composition : NaCl (120 mM), KCl (5 mM), CaCl₂ (1 mM), MgSO₄ (1 mM), KH₂PO₄ (1,3 mM), NaHCO₃ (20 mM), HEPES (10 mM), glucose (10 mM), pH 7,35. Les "EPSP" sont enregistrés dans le champ dendritique de la région CA1 lors de stimulations toutes les 30 secondes de la stratum radiatum (50-100 µA, 20 µs). Les EPSP sont évalués au maximum de l'onde négative. Le produit étudié est appliqué durant 10 minutes.

récepteur AMPA [1] = assay: AMPA-induced currents in Xenopus oocytes injected with rat cerebral cortex mRNA (two-electrode voltage clamp); type: cell-based; conditions: for Ki: Xenopus oocyte, AMPA 30 µM, -60 mV, read-out: Courant AMPA Ki; for Oocyte de Xenopus Ki AMPA/Ki NMDA/Gly: ratio of Ki on AMPA current to Ki on NMDA/Gly current
Protocol: (§1) Des oocytes de Xenopus sont injectés de 50 ng d'ARNm poly (A^+) isolés de cortex cérébral de Rat et incubés 2 à 3 Jours à 18°C pour en permettre l'expression protéique. Les courants entrants induits par les AAE sont mesurés dans un milieu de composition : NaCl (82,5 mM), KCl (2,5 mM), CaCl₂ (1 mM), MgCl₂ (1 mM), NaH₂PO₄ (1 mM), HEPES (5 mM), pH 7,4 par la méthode du Voltage-clamp à 2 électrodes (potentiel = - 60 mV). Pour la mesure des courants induits par le NMDA et la glycine, MgCl₂ est absent du milieu et le CaCl₂ est amené à la concentration de 2 mM. Les agonistes AAE induisant les courants sont utilisés aux concentrations suivantes : kainate : 100 µM; AMPA : 30 µM; glycine/NMDA : 3/30 µM. Le produit étudié est appliqué 30 secondes avant et durant l'application de l'agoniste.

récepteur AMPA [2] = assay: Membrane binding (3H-AMPA), rat cortex homogenate; conditions: binding to AMPA receptor, rat cortex membranes, 4°C, 30 min
Protocol: Il est réalisé à partir d'un homogénat de cortex de Rat. Le culot membranaire est classiquement préparé dans un tampon saccharose par centrifugations différentielles puis congelé jusqu'à utilisation. Après décongélation, 200 µl d'homogénat de membranes sont repris dans un tampon Tris HCl (30 mM), CaCl₂ (2,5 mM), pH 7,4 et incubés à 4°C pendant 30 minutes en présence de 25 µl de ³H-AMPA ou de ³H-Kainate et de 25 µl du produit à tester. La liaison non-spécifique est déterminée en présence de 10 µM de quisqualate (binding AMPA) ou de 10 µM d'acide kainique (binding kainate). Les membranes sont ensuite isolées par filtration. Après séchage des filtres, la radioactivité est mesurée par scintillation.

récepteur kainate = assay: Kainate-induced currents in Xenopus oocytes injected with rat cerebral cortex mRNA (two-electrode voltage clamp); type: cell-based; conditions: Xenopus oocyte, kainate 100 µM, -60 mV; read-out: Courant Kainate IC50
Protocol: as §1

Compound | IC50 (récepteurs AMPA/Kainate) [nM] | EPSP hippocampique IC50 AMPA-Kainate/IC50 NMDA-Glycine (récepteurs AMPA/Kainate) | Ki (récepteur AMPA [1]) [nM] | Oocyte de Xenopus Ki AMPA/Ki NMDA/Gly (récepteur AMPA [1]) | Ki (récepteur AMPA [2]) [nM] | IC50 (récepteur kainate) [nM]
O=c1[nH]c2cc([N+](=O)[O-])ccc2cc1NS(=O)(=O)C(F)(F)F [Exemple 2, 7-Nitro-3-(trifluorométhylsulfonylamino)-2-(1H)-quinoléinone] | 10000 | 0,25 | 370 | 0,60 | 600 | 500
NS(=O)(=O)c1cccc2c3c(cc([N+](=O)[O-])c12)=NC(=O)C(=O)N=3 [NBQX, 6-nitro-7-sulfamoylbenzo[f]quinoxaline-2,3-dione] | 1000 | << 0,001 | 60 | << 0,001 |  | 60
N#Cc1cc2c(cc1[N+](=O)[O-])=NC(=O)C(=O)N=2 [CNQX, 6-cyano-7-nitroquinoxaline-2,3-dione] | 2900 | 0,03 | 400 | 0,19 | 70 | 270
